# From ChEMBL document CHEMBL1697731, “Cheminformatics analysis of assertions mined from literature that describe drug-induced liver injury in different species” (Chem Res Toxicol, 2010)
# Columns and labels:
# Hepatotoxicity [1] = experiment: Literature-mined compound from Fourches et al multi-species drug-induced liver injury (DILI) dataset, effect in rodents; settings: rodentia
# Hepatotoxicity [2] = experiment: Literature-mined compound from Fourches et al multi-species drug-induced liver injury (DILI) dataset, effect in non-rodents
# Hepatotoxicity [3] = experiment: Literature-mined compound from Fourches et al multi-species drug-induced liver injury (DILI) dataset, effect in humans; settings: human
SMILES,Hepatotoxicity (Hepatotoxicity [1]),Hepatotoxicity (Hepatotoxicity [2]),Hepatotoxicity (Hepatotoxicity [3]),Hepatotoxicity (Hepatotoxicity [1]; Liver),Hepatotoxicity (Hepatotoxicity [2]; Liver),Hepatotoxicity (Hepatotoxicity [3]; Liver)
CCCc1nc2c(C)cc(-c3nc4ccccc4n3C)cc2n1Cc1ccc(-c2ccccc2C(=O)O)cc1,drug-induced liver injury reported,no drug-induced liver injury reported,drug-induced liver injury reported,–,–,–
CCCCN1C[C@H](O)[C@@H](O)[C@H](O)[C@H]1CO,drug-induced liver injury reported,no drug-induced liver injury reported,no drug-induced liver injury reported,–,–,–
CCCCC(=O)N(Cc1ccc(-c2ccccc2-c2nnn[nH]2)cc1)[C@H](C(=O)O)C(C)C,drug-induced liver injury reported,no drug-induced liver injury reported,drug-induced liver injury reported,–,–,–
CC(C)(C)NC(=O)[C@@H]1C[C@@H]2CCCC[C@@H]2CN1C[C@@H](O)[C@H](Cc1ccccc1)NC(=O)[C@H](CC(N)=O)NC(=O)c1ccc2ccccc2n1,–,–,–,no drug-induced liver injury reported,no drug-induced liver injury reported,drug-induced liver injury reported
CC(C)CN(C[C@@H](O)[C@H](Cc1ccccc1)NC(=O)O[C@H]1CCOC1)S(=O)(=O)c1ccc(N)cc1,no drug-induced liver injury reported,no drug-induced liver injury reported,drug-induced liver injury reported,–,–,–
CCOC(=O)[C@H](CCc1ccccc1)N[C@@H](C)C(=O)N1[C@H](C(=O)O)C[C@@H]2CCC[C@@H]21,drug-induced liver injury reported,no drug-induced liver injury reported,drug-induced liver injury reported,–,–,–
COc1cnc(NS(=O)(=O)c2ccc(N)cc2)nc1,no drug-induced liver injury reported,no drug-induced liver injury reported,drug-induced liver injury reported,–,–,–
FC(F)OC(F)C(F)(F)F (stereo not drawn),drug-induced liver injury reported,no drug-induced liver injury reported,drug-induced liver injury reported,–,–,–
CCN1CC(CCN2CCOCC2)C(c2ccccc2)(c2ccccc2)C1=O.Cl (stereo not drawn),no drug-induced liver injury reported,no drug-induced liver injury reported,drug-induced liver injury reported,–,–,–
N#Cc1cc(NC(=O)C(=O)O)c(Cl)c(NC(=O)C(=O)O)c1.NC(CO)(CO)CO,drug-induced liver injury reported,no drug-induced liver injury reported,no drug-induced liver injury reported,–,–,–
C[C@@H](O)[C@H](NC(=O)N(C)c1ncnc2c1ncn2[C@@H]1O[C@H](COP(=O)(O)O)[C@@H](O)[C@H]1O)C(=O)O,drug-induced liver injury reported,no drug-induced liver injury reported,no drug-induced liver injury reported,–,–,–
FC(F)OC(F)(F)C(F)Cl (stereo not drawn),drug-induced liver injury reported,drug-induced liver injury reported,drug-induced liver injury reported,–,–,–
CC[C@@H](C(N)=O)N1CCCC1=O,no drug-induced liver injury reported,no drug-induced liver injury reported,drug-induced liver injury reported,–,–,–
CC1=C(CC(=O)O)c2cc(F)ccc2/C1=C\c1ccc([S+](C)[O-])cc1 (stereo not drawn),drug-induced liver injury reported,no drug-induced liver injury reported,drug-induced liver injury reported,–,–,–
CCOC(=O)[C@H](CCc1ccccc1)N[C@@H](C)C(=O)N1Cc2ccccc2C[C@H]1C(=O)O,no drug-induced liver injury reported,no drug-induced liver injury reported,drug-induced liver injury reported,–,–,–
CCN(CC)Cc1cc(Nc2ccnc3cc(Cl)ccc23)ccc1O.Cl,–,–,–,drug-induced liver injury reported,no drug-induced liver injury reported,drug-induced liver injury reported
C=Cc1c(C)c2cc3nc(c(CC(=O)NC(CC(=O)O)C(=O)O)c4nc(cc5[nH]c(cc1[nH]2)c(C)c5CC)C(C)=C4C(=O)O)C(CCC(=O)O)C3C (stereo not drawn),drug-induced liver injury reported,no drug-induced liver injury reported,no drug-induced liver injury reported,–,–,–
C[C@@H]1O[C@@H](O[C@@H]2C=C3CC[C@@H]4[C@H](CC[C@]5(C)[C@@H](c6ccc(=O)oc6)CC[C@]45O)[C@@]3(C)CC2)[C@H](O)[C@H](O)[C@H]1O[C@@H]1O[C@H](CO)[C@@H](O)[C@H](O)[C@H]1O,drug-induced liver injury reported,no drug-induced liver injury reported,no drug-induced liver injury reported,–,–,–
CCCc1nn(C)c2c(=O)[nH]c(-c3cc(S(=O)(=O)N4CCN(C)CC4)ccc3OCC)nc12,no drug-induced liver injury reported,no drug-induced liver injury reported,drug-induced liver injury reported,–,–,–

SMILES,Hepatotoxicity (Hepatotoxicity [1]),Hepatotoxicity (Hepatotoxicity [2]),Hepatotoxicity (Hepatotoxicity [3]),Hepatotoxicity (Hepatotoxicity [1]; Liver),Hepatotoxicity (Hepatotoxicity [2]; Liver),Hepatotoxicity (Hepatotoxicity [3]; Liver)
C[C@H](NC(=O)C(=O)Nc1ccccc1C(C)(C)C)C(=O)N[C@@H](CC(=O)O)C(=O)COc1c(F)c(F)cc(F)c1F,drug-induced liver injury reported,no drug-induced liver injury reported,no drug-induced liver injury reported,–,–,–
CCC(=C(c1ccc(O)cc1)c1ccc(OCCN(C)C)cc1)c1ccccc1,drug-induced liver injury reported,no drug-induced liver injury reported,drug-induced liver injury reported,–,–,–
CCC[C@H](NC(=O)[C@@H]1[C@H]2CCC[C@H]2CN1C(=O)[C@@H](NC(=O)[C@@H](NC(=O)c1cnccn1)C1CCCCC1)C(C)(C)C)C(=O)C(=O)NC1CC1,no drug-induced liver injury reported,no drug-induced liver injury reported,drug-induced liver injury reported,–,–,–
O=C(O)COc1ccc(C(=O)c2cccs2)c(Cl)c1Cl,drug-induced liver injury reported,no drug-induced liver injury reported,drug-induced liver injury reported,–,–,–
CNC(=O)[C@@H](NC(=O)[C@H](CC(C)C)[C@H](O)C(=O)NO)C(C)(C)C,drug-induced liver injury reported,no drug-induced liver injury reported,no drug-induced liver injury reported,–,–,–
O=C(O)C(S)C(S)C(=O)O (stereo not drawn),drug-induced liver injury reported,no drug-induced liver injury reported,drug-induced liver injury reported,–,–,–
CCOC(=O)[C@H](CCc1ccccc1)N[C@@H](C)C(=O)N1C(=O)N(C)C[C@H]1C(=O)O,drug-induced liver injury reported,no drug-induced liver injury reported,no drug-induced liver injury reported,–,–,–
COc1ccc(/C=C/C(=O)Nc2ccccc2C(=O)O)cc1OC,drug-induced liver injury reported,no drug-induced liver injury reported,no drug-induced liver injury reported,–,–,–
C=C1[C@H](CO)[C@@H](O)C[C@@H]1n1cnc2c(=O)[nH]c(N)nc21.O,no drug-induced liver injury reported,no drug-induced liver injury reported,drug-induced liver injury reported,–,–,–
CC(C)(C)NC(=O)[C@@H]1CN(Cc2cccnc2)CCN1C[C@@H](O)C[C@@H](Cc1ccccc1)C(=O)N[C@H]1c2ccccc2C[C@H]1O.O,drug-induced liver injury reported,no drug-induced liver injury reported,drug-induced liver injury reported,–,–,–
CCOC(=O)[C@H](CCc1ccccc1)N[C@@H](C)C(=O)N1CCC[C@H]1C(=O)O,drug-induced liver injury reported,no drug-induced liver injury reported,drug-induced liver injury reported,–,–,–
Cc1c(O)cccc1C(=O)N[C@@H](CSc1ccccc1)[C@H](O)CN1C[C@H]2CCCC[C@H]2C[C@H]1C(=O)NC(C)(C)C,no drug-induced liver injury reported,no drug-induced liver injury reported,drug-induced liver injury reported,–,–,–
Cc1onc(-c2ccccc2)c1C(=O)N[C@@H]1C(=O)N2[C@@H]1SC(C)(C)[C@@H]2C(=O)[O-].[Na+],no drug-induced liver injury reported,no drug-induced liver injury reported,drug-induced liver injury reported,–,–,–
N[C@@H](Cc1ccc(N(CCCl)CCCl)cc1)C(=O)O,drug-induced liver injury reported,no drug-induced liver injury reported,drug-induced liver injury reported,–,–,–
CCN(CC)CCOc1ccc(C(=C(Cl)c2ccccc2)c2ccccc2)cc1 (stereo in doubt; form 2) [CLOMIPHENE],drug-induced liver injury reported,–,no drug-induced liver injury reported,–,–,–
C[C@]12CCC(=O)C=C1CC[C@@H]1[C@@H]2CC[C@@]2(C)[C@H]1CC[C@]2(C)O (stereo in doubt; form 2) [METHYLTESTOSTERONE],–,–,drug-induced liver injury reported,–,–,–
CC(=O)[C@H]1CC[C@H]2[C@@H]3CCC4=CC(=O)CC[C@]4(C)[C@H]3CC[C@]12C (stereo in doubt; form 2) [PROGESTERONE],no drug-induced liver injury reported,no drug-induced liver injury reported,–,–,–,–
NCC(=O)O [GLYCINE],–,–,–,drug-induced liver injury reported,drug-induced liver injury reported,–
Cc1ncc(CO)c(CO)c1O [PYRIDOXINE],–,–,–,drug-induced liver injury reported,no drug-induced liver injury reported,–
